Experimental data from patent US8003783B2, “17B-hydroxysteroid dehydrogenase inhibitors” (Sterix Limited, priority 2004, dated 2011).
Like-named read-outs stand apart in the source and are kept apart here.

Experiments:
rat liver E1-STS = target: T1, rat liver E1-STS (Rattus norvegicus, UniProt P15589); conditions: administered orally or subcutaneously; cited from earlier work
T1 construct: samples of liver tissue were obtained and oestrone sulphatase activity assayed; from tissue; host or cells: rat liver
T1 sequence (P15589 20-577): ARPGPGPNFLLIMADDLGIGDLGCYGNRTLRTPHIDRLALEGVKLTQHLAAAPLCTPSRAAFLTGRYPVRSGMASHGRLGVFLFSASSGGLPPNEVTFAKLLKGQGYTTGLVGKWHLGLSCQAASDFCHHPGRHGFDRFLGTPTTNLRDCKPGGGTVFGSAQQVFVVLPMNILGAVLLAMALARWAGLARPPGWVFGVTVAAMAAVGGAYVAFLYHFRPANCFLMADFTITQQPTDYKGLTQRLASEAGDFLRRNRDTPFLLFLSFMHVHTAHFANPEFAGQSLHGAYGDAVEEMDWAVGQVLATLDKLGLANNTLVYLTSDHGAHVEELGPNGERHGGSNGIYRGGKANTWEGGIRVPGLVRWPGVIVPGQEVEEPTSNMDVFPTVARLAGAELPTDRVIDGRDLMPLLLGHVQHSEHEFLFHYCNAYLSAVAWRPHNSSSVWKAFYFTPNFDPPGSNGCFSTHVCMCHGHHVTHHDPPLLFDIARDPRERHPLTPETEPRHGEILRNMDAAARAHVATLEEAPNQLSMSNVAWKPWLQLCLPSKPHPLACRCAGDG

rats = conditions: cited from earlier work
rat liver DHA-STS = target: T2, rat liver DHA-STS (Rattus norvegicus, UniProt P15589); conditions: administered orally or subcutaneously; cited from earlier work
T2 construct: from tissue; host or cells: rat liver
T2 sequence (P15589 20-577): T1 sequence (P15589 20-577)

E1-STS = target: T3, E1-STS (Homo sapiens, UniProt P08842); set-up: dose or concentration left out as unconfirmed; conditions: intact MCF-7 cells; cited from earlier work
T3 construct: endogenous in cells; host or cells: MCF-7 human breast cancer cells
T3 sequence (P08842 22-583): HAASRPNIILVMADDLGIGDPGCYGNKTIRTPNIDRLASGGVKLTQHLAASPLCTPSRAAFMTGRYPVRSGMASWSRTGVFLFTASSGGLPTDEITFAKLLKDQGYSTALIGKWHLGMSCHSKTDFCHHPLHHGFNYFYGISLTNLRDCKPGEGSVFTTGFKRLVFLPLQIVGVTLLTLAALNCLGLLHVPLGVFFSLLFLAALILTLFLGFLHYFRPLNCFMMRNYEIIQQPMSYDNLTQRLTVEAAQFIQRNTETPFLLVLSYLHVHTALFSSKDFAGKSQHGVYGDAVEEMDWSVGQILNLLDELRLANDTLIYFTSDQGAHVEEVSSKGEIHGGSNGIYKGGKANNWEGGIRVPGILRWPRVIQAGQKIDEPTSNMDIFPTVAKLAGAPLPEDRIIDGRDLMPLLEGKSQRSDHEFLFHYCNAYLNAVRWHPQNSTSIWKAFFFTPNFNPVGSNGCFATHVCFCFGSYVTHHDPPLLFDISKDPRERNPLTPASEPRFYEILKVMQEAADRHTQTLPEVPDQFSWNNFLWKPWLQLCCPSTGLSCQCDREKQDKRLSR

17β-HSD1 = target: T4, 17β-HSD1 (Homo sapiens, UniProt P14061); assay: 17β-HSD Type I activity in T-47D cells (E1→E2); assay type: cell-based; conditions: for inhibition at 10 µM: T47D
T4 construct: was measured in intact cell monolayers of T47D and MDA-MB-231 breast cancer cells respectively; endogenous in cells; host or cells: T-47D human breast cancer cells
T4 sequence (P14061 1-328): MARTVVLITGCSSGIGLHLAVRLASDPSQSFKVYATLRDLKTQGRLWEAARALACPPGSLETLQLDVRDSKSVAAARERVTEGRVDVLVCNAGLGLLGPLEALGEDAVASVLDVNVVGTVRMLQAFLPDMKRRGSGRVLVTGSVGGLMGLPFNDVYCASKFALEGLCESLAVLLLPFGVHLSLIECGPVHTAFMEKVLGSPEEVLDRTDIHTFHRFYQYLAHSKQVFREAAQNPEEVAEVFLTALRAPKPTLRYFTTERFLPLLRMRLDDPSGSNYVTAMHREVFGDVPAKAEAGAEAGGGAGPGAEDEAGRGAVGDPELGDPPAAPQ

17β-HSD2 = target: T5, 17β-HSD2 (Homo sapiens, UniProt P37059); assay: 17β-HSD Type II activity in MDA-MB-231 cells (E2→E1); assay type: cell-based
T5 construct: was measured in intact cell monolayers of T47D and MDA-MB-231 breast cancer cells respectively; endogenous in cells; host or cells: MDA-MB-231 human breast cancer cells
T5 sequence (P37059 1-387): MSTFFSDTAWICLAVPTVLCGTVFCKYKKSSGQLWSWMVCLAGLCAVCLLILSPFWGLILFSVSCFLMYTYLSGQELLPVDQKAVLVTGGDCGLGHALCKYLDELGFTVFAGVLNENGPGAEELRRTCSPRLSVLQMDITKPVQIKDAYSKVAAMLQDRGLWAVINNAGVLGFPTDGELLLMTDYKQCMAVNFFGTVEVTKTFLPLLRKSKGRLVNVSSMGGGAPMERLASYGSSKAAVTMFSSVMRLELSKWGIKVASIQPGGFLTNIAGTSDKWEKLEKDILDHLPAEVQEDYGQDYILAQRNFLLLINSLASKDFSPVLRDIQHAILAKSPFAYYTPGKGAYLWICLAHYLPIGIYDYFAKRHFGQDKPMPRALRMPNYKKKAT

[1] = 10 μM, T-47D cells, E1→E2, read-out: % inhibition of 17β-HSD1 @ 10 μM
[2] = T-47D cells, E1→E2, read-out: IC50 (17β-HSD1)
[3] = 10 μM, MDA-MB-231 cells, E2→E1, read-out: % inhibition of 17β-HSD2 @ 10 μM
[4] = read-out: % inhibition of 17β-HSD1 @ 10 μM, 10 μM, T-47D cells, E1→E2
[5] = MDA-MB-231, read-out: % inhibition of 17β-HSD2 @ 10 μM

Row | SMILES | inhibition at 10 µM (17β-HSD1; [1]) | inhibition at 10 µM (17β-HSD2; [3]) | further results
1 | C[C@]12CC[C@@H]3c4ccc(OS(N)(=O)=O)cc4CC[C@H]3[C@@H]1CCC2=O [EMATE, oestrone-3-sulphamate] | – | – | inhibition of rat liver E1-STS activity (rat liver E1-STS): 99%; oral uterotrophic activity relative to oestradiol (rats): 100 times; inhibition of rat liver DHA-STS activity (rat liver DHA-STS): 99%; inhibition of E1-STS activity (E1-STS): more than 99%
2 | C[C@]12CCC3c4ccc(O)cc4C(=O)CC3C1C/C(=C/O)C2=O (some centres unmarked) [compound 784] | 97% | -7% | IC50 (17β-HSD1; [2]): 700 nM
3 | C[C@]12CCC3c4ccc(O)cc4CCC3C1CC(C(=O)NCC1CCCO1)[C@@H]2O (some centres unmarked) [compound 779] | 82% | 11% | –
4 | C[C@]12CCC3c4ccc(OS(N)(=O)=O)cc4CCC3C1C/C(=C\c1ccccc1)C2=O (some centres unmarked) [compound 314] | -1% | 1% | –
5 | C[C@]12CCC3c4ccc(O)cc4CCC3C1C/C(=C\c1ccccn1)[C@@H]2O (some centres unmarked) [compound 322] | 55% | 17% | –
6 | CN(C)c1ccc(CC2CC3C4CCc5cc(O)ccc5C4CC[C@]3(C)[C@H]2O)cc1 (some centres unmarked) [compound 594, 16-(4-Dimethylamino-benzyl)-13-methyl-7,8,9,11,12,13,14,15,16,17-decahydro-6H-cyclopenta[a]phenanthrene-3,17-diol] | 41% | 25% | –
7 | C[C@]12CCC3c4ccc(O)cc4CCC3C1CC(C(=O)O)[C@@H]2O (some centres unmarked) [compound 611] | 39% | 4% | –
8 | Cn1cccc1CNC(=O)c1[nH]nc2c1CC1C3CCc4cc(O)ccc4C3CC[C@]21C (some centres unmarked) [compound 895] | – | – | inhibition at 10 µM (17β-HSD1; [4]): 89%; IC50 (17β-HSD1; [2]): 2300 nM; inhibition at 10 µM (17β-HSD2; [5]): -4%
9 | Cn1cc2c(n1)[C@@]1(C)CCC3c4ccc(O)cc4CCC3C1C2 (some centres unmarked) [compound 785] | – | – | inhibition at 10 µM (17β-HSD1; [4]): 94%; IC50 (17β-HSD1; [2]): 2750 nM; inhibition at 10 µM (17β-HSD2; [5]): 24%
10 | C[C@]12CCC3c4ccc(O)cc4/C(=N\O)CC3C1CC/C2=N\O (some centres unmarked) [compound 454] | – | 27% | IC50 (17β-HSD1; [2]): 1900 nM
11 | C[C@]12CCC3c4ccc(O)cc4CCC3C1CC(C(=O)NCc1cccnc1)[C@@H]2O (some centres unmarked) [compound 798] | 91% | -12% | IC50 (17β-HSD1): 510 nM
12 | CCOCC1CC2C3CCc4cc(O)ccc4C3CC[C@]2(C)C1=O (some centres unmarked) [compound 664] | 92% | 19% | IC50 (17β-HSD1): 320 nM
13 | CCOC(=O)/C(O)=C1\CC2C3CCc4cc(O)ccc4C3CC[C@]2(C)C1=O (some centres unmarked) [compound 330] | 72% | 7% | % inhibition of 17β-HSD1 @ 10 μM (17β-HSD1; 10 μM, T-47D cells, E1→E2): 77%
14 | CCOC(=O)CC1CC2C3CCc4cc(O)ccc4C3CC[C@]2(C)C1=O (some centres unmarked) [compound 573] | 97% | 18% | IC50 (17β-HSD1): 300 nM
15 | C[C@]12CCC3c4ccc(O)cc4CCC3C1CC(=N/O)/C2=N\O (some centres unmarked) [compound 338] | 55% | -2% | –
16 | C[C@]12CCC3c4ccc(O)cc4CCC3C1C/C(=N/O)C2=O (some centres unmarked) [compound 327] | 96% | 5% | % inhibition of 17β-HSD1 @ 10 μM (17β-HSD1; 10 μM, T-47D cells, E1→E2): 94%; IC50 (17β-HSD1; [2]): 1100 nM

Row | SMILES | inhibition at 10 µM (17β-HSD1; [1]) | inhibition at 10 µM (17β-HSD2; [3]) | further results
17 | CC(C)(C)/C=C1\CC2C3CCc4cc(O)ccc4C3CC[C@]2(C)[C@H]1O (some centres unmarked) [compound 948] | 84% | 27% | –
18 | C[C@]12CCC3c4ccc(O)cc4CCC3C1Cc1c2n[nH]c1CO (some centres unmarked) [compound 804] | 94% | -1% | IC50 (17β-HSD1; [2]): 950 nM
19 | CO/N=C1\CC2C(CC[C@]3(C)/C(=N/OC)CCC23)c2ccc(O)cc21 (some centres unmarked) [compound 515] | 15% | 31% | –
20 | CC(NC(=O)C1CC2C3CCc4cc(O)ccc4C3CC[C@]2(C)[C@H]1O)c1ccccc1 (some centres unmarked) [compound 844] | 90% | 12% | IC50 (17β-HSD1): 810 nM
21 | COc1cc(/C=C2\CC3C4CCc5cc(OS(N)(=O)=O)ccc5C4CC[C@]3(C)C2=O)cc(OC)c1OC (some centres unmarked) [compound 692] | 4% | 17% | –
22 | C[C@]12CCC3c4ccc(O)cc4CCC3C1C/C(=C(/O)C(F)(F)F)C2=O (some centres unmarked) [compound 946] | – | – | % inhibition of 17β-HSD1 @ 10 μM (17β-HSD1; 10 μM, T-47D cells, E1→E2): 87%; inhibition at 10 µM (17β-HSD1; [4]): 69%; inhibition at 10 µM (17β-HSD2; [5]): -1.5%
23 | CNC(=O)CC1CC2C3CCc4cc(O)ccc4C3CC[C@]2(C)[C@H]1O (some centres unmarked) [compound 775] | 63% | 11% | –
24 | C[C@]12CCC3c4ccc(O)cc4CCC3C1CC(CC(=O)NCc1cccnc1)C2=O (some centres unmarked) [compound 670] | 95% | 26% | IC50 (17β-HSD1; [2]): 33 nM
25 | C[C@]12CCC3C4CC=C(O)C=C4CCC3C1CC(CC(=O)O)C2=O (some centres unmarked) [compound 604] | 13% | -5% | –
26 | C[C@]12CCC3c4ccc(O)cc4CCC3C1C/C(=C\c1cccnc1)[C@@H]2O (some centres unmarked) [compound 323] | 52% | 43% | –
27 | C[C@]12CCC3c4ccc(O)cc4CCC3C1CC(CC(=O)NCc1ccco1)[C@@H]2O (some centres unmarked) [compound 667] | 35% | 14% | –
28 | C[C@]12CCC3c4ccc(O)cc4CCC3C1CC(CC(=O)NCc1ccccn1)C2=O (some centres unmarked) [compound 669] | – | – | inhibition at 10 µM (17β-HSD1; [4]): 82%; inhibition at 10 µM (17β-HSD2; [5]): 7%
29 | CCc1cc2c(cc1OS(N)(=O)=O)CCC1C2CC[C@]2(C)C(=O)C(CC(=O)NCc3cccnc3)CC12 (some centres unmarked) [compound 1039] | – | -4% | IC50 (17β-HSD1; [2]): 5100 nM
30 | COC(=O)C1CC2C3CCc4cc(O)ccc4C3CC[C@]2(C)C1=O (some centres unmarked) [compound 568] | 69% | 9% | –
31 | COCCNC(=O)CC1CC2C3CCc4cc(O)ccc4C3CC[C@]2(C)C1=O (some centres unmarked) [compound 689] | 53% | 8% | –
